Source: the supplement of paper PMC10307832

Columns and labels:
Assay in all cases: relative viability (nuclei count vs DMSO), 5 days (fraction); higher = more cells survive
Olaparib + Lapatinib = compound: O=C(c1cc(Cc2n[nH]c(=O)c3ccccc23)ccc1F)N1CCN(C(=O)C2CC2)CC1 [Olaparib] + CS(=O)(=O)CCNCc1ccc(-c2ccc3ncnc(Nc4ccc(OCc5cccc(F)c5)c(Cl)c4)c3c2)o1 [Lapatinib] (partner 2 µM)
Outline: (§1)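 Values are medians from duplicate plates. Each reflects relative viability, defined as the nuclei count of treated wells over that of vehicle wells. Lung cancer cell lines in 1536-well plates were pin-tool dosed one day after seeding with one drug alone or with a fixed anchor-drug dose plus five library-drug doses (not always all listed) in √10 steps, then fixed, stained and imaged at 4× after 5 days.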

Crizotinib + Pemetrexed = compound: C[C@@H](Oc1cc(-c2cnn(C3CCNCC3)c2)cnc1N)c1c(Cl)ccc(F)c1Cl [Crizotinib] + Nc1nc2[nH]cc(CCc3ccc(C(=O)N[C@@H](CCC(=O)O)C(=O)O)cc3)c2c(=O)[nH]1 [Pemetrexed] (partner 0.2 µM)
Outline: as §1

Crizotinib + Foretinib = compound: C[C@@H](Oc1cc(-c2cnn(C3CCNCC3)c2)cnc1N)c1c(Cl)ccc(F)c1Cl [Crizotinib] + COc1cc2c(Oc3ccc(NC(=O)C4(C(=O)Nc5ccc(F)cc5)CC4)cc3F)ccnc2cc1OCCCN1CCOCC1 [Foretinib] (partner 0.25 µM)
Outline: as §1

Olaparib + Linsitinib = compound: O=C(c1cc(Cc2n[nH]c(=O)c3ccccc23)ccc1F)N1CCN(C(=O)C2CC2)CC1 [Olaparib] + C[C@]1(O)C[C@@H](c2nc(-c3ccc4ccc(-c5ccccc5)nc4c3)c3c(N)nccn32)C1 [Linsitinib] (partner 1 µM)
Outline: as §1

Cell Line	relative viability (Olaparib + Lapatinib; first compound 0.08 µM)	relative viability (Olaparib + Lapatinib; first compound 0.253 µM)	relative viability (Olaparib + Lapatinib; first compound 2.53 µM)	relative viability (Olaparib + Lapatinib; first compound 8 µM)	relative viability (Crizotinib + Pemetrexed; first compound 0.01 µM)	relative viability (Crizotinib + Pemetrexed; first compound 0.03162 µM)	relative viability (Crizotinib + Pemetrexed; first compound 0.1 µM)	relative viability (Crizotinib + Pemetrexed; first compound 0.3162 µM)	relative viability (Crizotinib + Pemetrexed; first compound 1 µM)	relative viability (Crizotinib + Foretinib; first compound 0.01 µM)	relative viability (Crizotinib + Foretinib; first compound 0.03162 µM)	relative viability (Crizotinib + Foretinib; first compound 0.1 µM)	relative viability (Crizotinib + Foretinib; first compound 0.3162 µM)	relative viability (Crizotinib + Foretinib; first compound 1 µM)	relative viability (Olaparib + Linsitinib; first compound 0.08 µM)	relative viability (Olaparib + Linsitinib; first compound 0.253 µM)	relative viability (Olaparib + Linsitinib; first compound 2.53 µM)	relative viability (Olaparib + Linsitinib; first compound 8 µM)
LOU-NH91	0.83	0.77	0.733	0.735	0.35	0.368	0.383	0.396	0.383	0.917	0.949	0.995	0.921	0.98	1.19	0.94	0.973	0.885
NCI-H1755	1.15	0.916	1.08	0.967	0.373	0.44	0.382	0.445	0.408	0.835	0.923	0.887	0.877	0.891	1.03	0.917	0.92	0.918
NCI-H647	1.43	0.984	1.13	0.59	0.162	0.188	0.146	0.177	0.186	1.2	1.24	1.19	1.18	1.22	1.4	1.05	0.919	0.779
A549	1.21	0.833	0.983	0.666						0.919	1.05	0.908	0.853	1.02	0.761	0.567	0.588	0.436
LCLC-103H					0.493	0.47	0.447	0.461	0.444	0.75	0.732	0.727	0.865	0.711	1.13	1.07	1.04	0.873
NCI-H1437	0.801	0.652	0.717	0.599	0.338	0.3	0.319	0.314	0.325	1.14	1.22	1.25	1.27	1.32	1.18	0.927	1.02	0.788
NCI-H2170	0.29	0.259	0.269	0.279	0.251	0.283	0.265	0.266	0.278	0.965	0.991	0.999	1.02	1.01				
HCC-15	0.999	0.752	0.808	0.765	0.234	0.222	0.233	0.209	0.213	1.07	1	1.03		0.987	0.927	0.828	0.836	0.768
NCI-H1648						0.703	0.568	0.81	0.675									
NCI-H661	0.638	0.443	0.426	0.543	0.82	0.939	0.854	1	0.904	0.941		1.01	1.08	0.98	0.773	0.593	0.518	0.573
NCI-H650	1.05	0.834	0.903	0.742	1.09	0.907	0.956		0.984	1.03	0.998	1.03	0.977	0.99	0.806	0.735	0.776	0.724
RERF-LC-KJ	0.872	0.831	0.971	0.872	0.475	0.459	0.461	0.473	0.517	0.824	0.896	1.33	0.817	0.887	0.939	0.903	0.948	0.902
SK-LU-1	1.2	0.803	0.83	0.683	0.887	0.911	0.815	1.02	0.922	0.822	0.778	0.787	0.902	0.848	1.34	0.998	1.02	0.622
NCI-H1792	0.895	0.738	0.82	0.779	0.829	1.06	0.847		0.871						0.7	0.46	0.421	0.324
NCI-H1666	0.845	0.633	0.577	0.532	0.826	0.814	0.87	0.808	0.82	0.921	0.969	0.99	0.964	0.955	0.901	0.841	0.75	0.655
SK-MES-1	0.537	0.491	0.501	0.433	0.879	0.928	0.927		0.924	0.875	0.919	0.941	0.798	0.843	1.14	0.996	1.05	0.796
NCI-H1915	1.05	0.813	0.778	0.76	0.455	0.431	0.506	0.455	0.482	1	1.1	1.07		1.08	1.14	1.02	0.734	0.651
SW 1573	1.16	1	1	0.689		0.797	0.749	0.676	0.908	0.85	0.762	0.905	0.77	0.98	0.893	0.889	0.661	0.73
NCI-H2087	1.08	0.997	0.892	0.632	0.725	0.724	0.553	0.702	0.723	1.12	1.12	1.03		1.24	0.984	0.912	0.83	0.685
BEN	0.636	0.515	0.784	0.712	0.726	0.741	0.739	0.596	0.702	0.866	0.732	0.644	0.332	0.633	0.89	0.749	1.05	0.982
NCI-H1650	1.04	0.756	0.796	0.749	0.308	0.403	0.334	0.37	0.408		1.1	0.949	1.07	1.43				
A-427	1.13	0.931	0.879	1.02	0.967	0.954	0.957			0.943	1.04	1.04		1.04	1.12	1.03	1.03	0.851

Cell Line	relative viability (Olaparib + Lapatinib; first compound 0.08 µM)	relative viability (Olaparib + Lapatinib; first compound 0.253 µM)	relative viability (Olaparib + Lapatinib; first compound 2.53 µM)	relative viability (Olaparib + Lapatinib; first compound 8 µM)	relative viability (Crizotinib + Pemetrexed; first compound 0.01 µM)	relative viability (Crizotinib + Pemetrexed; first compound 0.03162 µM)	relative viability (Crizotinib + Pemetrexed; first compound 0.1 µM)	relative viability (Crizotinib + Pemetrexed; first compound 0.3162 µM)	relative viability (Crizotinib + Pemetrexed; first compound 1 µM)	relative viability (Crizotinib + Foretinib; first compound 0.01 µM)	relative viability (Crizotinib + Foretinib; first compound 0.03162 µM)	relative viability (Crizotinib + Foretinib; first compound 0.1 µM)	relative viability (Crizotinib + Foretinib; first compound 0.3162 µM)	relative viability (Crizotinib + Foretinib; first compound 1 µM)	relative viability (Olaparib + Linsitinib; first compound 0.08 µM)	relative viability (Olaparib + Linsitinib; first compound 0.253 µM)	relative viability (Olaparib + Linsitinib; first compound 2.53 µM)	relative viability (Olaparib + Linsitinib; first compound 8 µM)
CAL-12T	0.94	0.643	0.631	0.664	1.09	1.09	1.06	1.19	1.02	1.11	1.17			1.24	1.05	0.751	0.825	0.666
EPLC-272H	1.16	0.848	1.08	1.01	0.298	0.355	0.397	0.37	0.402	0.669	0.627	0.669	0.636	0.679	1.25	1.11	1.21	1.03
NCI-H23	1.32	0.791	0.679	0.485	0.489	0.591	0.567		0.812	0.998	0.905	1.01		0.936	0.572	0.572	0.45	0.299
NCI-H1563	0.975	0.999	0.992	0.92	0.759	0.833	0.757	0.735	0.875	0.93		0.888	0.904	1.05	1.22	1.25	1.2	1.2
H3255	0.229	0.245	0.256	0.219	0.556	0.553	0.592	0.54	0.557	0.849	0.866	1.11	0.581	0.877	1.04	0.912	0.932	0.825
NCI-H1355	1.13	0.863	1	0.944	0.998	0.928	1.08	0.976	1.07	0.935	0.81	0.922	0.916	0.959	0.882	0.811	0.775	0.637
UMC-11	1.08	0.928	0.643	0.365	0.864	0.76	0.732	0.814	0.841	1.01	1.04	1.07	1.04	1.02	1.03	0.974	0.798	0.504
HCC-44	1.02	0.946	1.11	1.05	0.603	0.648	0.689	0.593	0.665						0.654	0.562	0.713	0.682
Calu-6	1.23	0.995	0.893	0.724						0.855	0.938	0.86	0.947	0.927	1.06	0.866	0.824	0.717
NCI-H2342					0.761	0.792	0.737	0.636	0.744	1.01	1.04	1.06	0.978	1.14				
NCI-H522					1.04	0.968	0.828	1.04	0.999									
NCI-H441					0.25	0.265	0.292	0.246	0.237		0.958	0.931		0.825	0.658	0.528	0.544	0.485
NCI-H1623										0.736	0.92	0.829	0.873	0.801				
SW 900					0.505	0.437	0.493	0.476	0.466	0.935	0.877	0.823	1.01	0.742				
NCI-H1299	1.01	0.927	0.949	0.963						1.03	1.07	1.04	1.08	1.06	1	0.945	0.966	0.943
ABC-1	1.01	1.07	1.02	1.25							1.02	1.05	1.31	1.09	1.1	0.918	0.644	0.556
ChaGo-K-1					0.253	0.249	0.253	0.241	0.261	0.838		0.939		0.939				
IA-LM	1.13	0.926	0.746	0.602						1.07	1.05	1.18	1.21	1.1	0.891	0.391	0.672	0.443
NCI-H727	0.945	0.778	0.651	0.465							1.24	0.957		1.22	0.283	0.241	0.247	0.282
EBC-1	0.247	0.235	0.236	0.201						0.0852	0.1	0.107	0.112	0.104	1.07	0.824	0.848	0.751
NCI-H1703	1.63	1.03	1.29	1.04						0.362	0.295	0.358	0.398	0.331	0.9	0.697	0.881	0.408
